Results on seven compounds are retold here after ChEMBL document CHEMBL1124088, “Synthesis and evaluation of 3-substituted analogues of 1,2,3,4-tetrahydroisoquinoline as inhibitors of phenylethanolamine N-methyltransferase” (J Med Chem, 1988).

The Ki is the dissociation constant of the complex between target and ligand, obtained from inhibition or displacement. Higher therefore signals a looser hold on the target.

The structures appear in SMILES notation. A value given as a limit tells only on which side of the number the result lay.

In the first assay the target is T1, Phenylethanolamine N-methyltransferase (Bos taurus, UniProt P10938).
T1 sequence (P10938 whole entry): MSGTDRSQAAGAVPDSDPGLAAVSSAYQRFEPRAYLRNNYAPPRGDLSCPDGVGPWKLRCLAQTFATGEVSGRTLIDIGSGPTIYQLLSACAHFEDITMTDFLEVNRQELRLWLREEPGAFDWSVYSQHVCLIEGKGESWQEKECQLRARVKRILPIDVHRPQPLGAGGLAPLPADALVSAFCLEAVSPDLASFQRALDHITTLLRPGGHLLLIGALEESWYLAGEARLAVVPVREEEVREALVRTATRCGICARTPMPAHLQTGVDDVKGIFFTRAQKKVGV
In words: In vitro inhibitory activity measured against bovine adrenal phenylethanolamine N-methyltransferase(PNMT); Ki values determined at incubation times of 5, 10, 15, 20 and 30 min.
As for `COC(=O)C1Cc2ccccc2CN1` (configuration not stated), the Ki amounted to 69.5 µM.

The target in a further assay is T1, Phenylethanolamine N-methyltransferase. The assay can be described thus: In vitro inhibitory activity measured against bovine adrenal phenylethanolamine N-methyltransferase(PNMT).
In turn, `O=C(O)C1Cc2ccccc2CN1` (configuration not stated) returned a Ki above 2000 µM. On to `Clc1ccc2c(c1Cl)CNCC2`, for which the affinity, expressed as Ki, was 0.24 µM. `OCC1Cc2ccc(Cl)c(Cl)c2CN1` (configuration not stated) returned a Ki of 0.38 µM. With `CCC1Cc2ccccc2CN1` (configuration not stated), affinity was put at a Ki of 23.9 µM. This Ki lies about 63-fold higher than the previous one. Same read-out and setting: under `OCC1Cc2ccccc2CN1` (configuration not stated) stands 2.4 µM; under `NC(=O)C1Cc2ccccc2CN1` (configuration not stated), 40.5 µM.
